In patent publication US7125990B2, “Imidazolyl derivatives as corticotropin releasing factor inhibitors” (Bristol-Myers Squibb COmpany, priority 2001, dated 2006):

molecular target: T1, CRF1 receptors (Homo sapiens, UniProt P34998); assay: CRF1 receptor radioligand binding assay ([125I]-oCRF competition, IMR-32 cell membranes); settings: IMR-32 cell membranes, [125I]-oCRF 100 pM; read-out: Ki (CRF-1R)
T1 construct: endogenous in cells; host or cells: IMR-32 cells, transformed with 2.5 µM 5'-bromo-2'-deoxyuridine for 10 days; membrane preparation
T1 sequence (P34998 24-415): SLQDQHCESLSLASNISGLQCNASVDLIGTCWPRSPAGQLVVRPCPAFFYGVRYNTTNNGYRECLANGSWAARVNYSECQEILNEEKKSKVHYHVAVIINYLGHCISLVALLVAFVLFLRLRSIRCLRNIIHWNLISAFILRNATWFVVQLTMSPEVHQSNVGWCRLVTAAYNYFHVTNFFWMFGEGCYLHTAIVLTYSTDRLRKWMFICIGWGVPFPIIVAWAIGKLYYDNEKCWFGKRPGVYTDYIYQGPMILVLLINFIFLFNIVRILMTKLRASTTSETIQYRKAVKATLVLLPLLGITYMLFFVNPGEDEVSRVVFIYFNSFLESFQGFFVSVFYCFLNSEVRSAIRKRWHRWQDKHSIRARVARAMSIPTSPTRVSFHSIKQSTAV
Procedure, shortened: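 Buffer: Tris pH 7.2 with MgCl2, BSA, Triton X-100, aprotinin, leupeptin; reaction stopped with ice-cold wash and filtered. Nonspecific binding set with 10 μM oCRF.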

Row | Compound | Ki [nM]
1 | C=CCN(CC=C)Cc1c(CC)nc2n(-c3c(C)cc(C)cc3C)c3ncccc3n12 [Example 251, Diallyl-[2-ethyl-8-(2,4,6-trimethyl-phenyl)-8H-1,3a,7,8-tetraaza-cyclopenta[α]inden-3-ylmethyl]-amine] | < 1000
2 | CCC(CC)NCc1c(C)nc2n(-c3c(C)cc(C)cc3Cl)c3ncccc3n12 [Example 279, [8-(2-Chloro-4,6-dimethyl-phenyl)-2-methyl-8H-1,3a,7,8-tetraaza-cyclopenta[α]inden-3-ylmethyl]-(1-ethyl-propyl)-amine] | < 10000
3 | CCCN(Cc1c(C)nc2n(-c3c(C)cc(C)cc3C)c(Cl)cn12)CC1CC1 [Example 284, [6-Chloro-2-methyl-7-(2,4,6-trimethyl-phenyl)-7H-imidazo[1,2-a]imidazol-3-ylmethyl]-cyclopropylmethyl-propyl-amine] | < 100
4 | CCCN(CC1CC1)C(=O)c1c(CC)nc2n(-c3ccc(C(C)C)cc3Br)c(Cl)cn12 [Example 285, 6-Chloro-2-ethyl-7-(2-bromo-4-isopropylphenyl)-7H-imidazo[1,2-a]imidazole-3-carboxylic acid N-cyclopropylmethyl-N-propylamide] | < 1000
5 | CCc1nc2n(-c3ccc(Cl)cc3Cl)c(Cl)cn2c1C(=O)N(CC1CC1)CC(F)(F)F [Example 286, 6-Chloro-2-ethyl-7-(2,4-dichlorophenyl)-7H-imidazo[1,2-a]imidazole-3-carboxylic acid N-cyclopropylmethyl-N-(2,2,2-trifluoroethyl)amide] | < 10
6 | CCCN(CCC)C(=O)c1c(CC)nc2n(-c3ccc(Cl)cc3Cl)c(Cl)cn12 [Example 287, 6-Chloro-2-ethyl-7-(2,4-dichlorophenyl)-7H-imidazo[1,2-a]imidazole-3-carboxylic acid N,N-dipropylamide] | < 10
7 | CCCN(CC1CC1)C(=O)c1c(CC)nc2n(-c3c(C)cc(C)cc3C)c(Cl)cn12 [Example 290, 6-Chloro-2-ethyl-7-(2,4,6-trimethylphenyl)-7H-imidazo[1,2-a]imidazole-3-carboxylic acid N-cyclopropylmethyl-N-propylamide] | < 100
8 | CCCCN(CC)Cc1c(CC)nc2n(-c3c(C)cc(C)cc3C)c(Cl)cn12 [Example 294, 3-[(N-Butyl-N-ethylamino)methyl]-6-chloro-2-ethyl-7-(2,4,6-trimethylphenyl)-7H-imidazo[1,2-a]imidazole] | < 1000
9 | CCc1nc2n(-c3c(C)cc(C)cc3C)c(Cl)cn2c1CN(CC)CC1CC1 [Example 299, 3-[(N-Cyclopropylmethyl-N-ethylamino)methyl]-6-chloro-2-ethyl-7-(2,4,6-trimethylphenyl)-7H-imidazo[1,2-a]imidazole] | < 100
10 | CCc1nc2n(-c3c(C)cc(C)cc3C)c(Cl)cn2c1C(=O)N1CC(C)CC(C)C1 (stereo not shown) [Example 300] | < 100
11 | CCCN(CC1CC1)C(=O)c1c(C(F)(F)F)nc2n(-c3c(C)cc(C)cc3C)c(Cl)cn12 [Example 302, 6-Chloro-2-trifluoromethyl-7-(2,4,6-trimethyl-phenyl)-7H-imidazo[1,2-a]imidazole-3-carboxylic acid cyclopropylmethyl-propyl-amide] | < 100
12 | Cc1cc(C)c(-n2c(Cl)cn3c(CN(CC4CC4)CC(F)(F)F)c(C(F)(F)F)nc23)c(C)c1 [Example 304, [6-Chloro-2-trifluoromethyl-7-(2,4,6-trimethyl-phenyl)-7H-imidazo[1,2-a]imidazol-3-ylmethyl]-cyclopropylmethyl-(2,2,2-trifluoro-ethyl)-amine] | < 10
13 | Cc1cc(C)c(-n2c(Cl)cn3c(CN(C)Cc4ccccc4)c(C(F)(F)F)nc23)c(C)c1 [Example 307, Benzyl-[6-chloro-2-trifluoromethyl-7-(2,4,6-trimethyl-phenyl)-7H-imidazo[1,2-a]imidazol-3-ylmethyl]-methyl-amine] | < 1000
14 | Cc1cc(C)c(-n2c(Cl)cn3c(CN(C)CCc4ccccc4)c(C(F)(F)F)nc23)c(C)c1 [Example 308, [6-Chloro-2-trifluoromethyl-7-(2,4,6-trimethyl-phenyl)-7H-imidazo[1,2-a]imidazol-3-ylmethyl]-methyl-phenethyl-amine] | < 1000

Now from value to molecule:

Row | Ki [nM] | Compound
15 | < 100 | C=CCN(CCC)Cc1c(CC)nc2n(-c3c(C)cc(C)cc3C)c3ncccc3n12 [Example 249, Allyl-[2-ethyl-8-(2,4,6-trimethyl-phenyl)-8H-1,3a,7,8-tetraaza-cyclopenta[α]inden-3-ylmethyl]-propyl-amine]
16 | < 1000 | CCc1nc2n(-c3c(C)cc(C)cc3C)c3ncccc3n2c1CN(CC)CC1CC1 [Example 250, Cyclopropylmethyl-ethyl-[2-ethyl-8-(2,4,6-trimethyl-phenyl)-8H-1,3a,7,8-tetraaza-cyclopenta[α]inden-3-ylmethyl]-amine]
17 | < 1000 | CCCN(CCC1CC1)Cc1c(CC)nc2n(-c3c(C)cc(C)cc3C)c3ncccc3n12 [Example 252, (2-Cyclopropyl-ethyl)-[2-ethyl-8-(2,4,6-trimethyl-phenyl)-8H-1,3a,7,8-tetraaza-cyclopenta[α]inden-3-ylmethyl]-propyl-amine]
18 | < 100 | CCCN(CC1CC1)C(=O)c1c(C)nc2n(-c3c(C)cc(C)cc3C)c(Cl)cn12 [Example 283, 6-Chloro-2-methyl-7-(2,4,6-trimethyl-phenyl)-7H-imidazo[1,2-a]imidazole-3-carboxylic acid cyclopropylmethyl-propyl-amide]
19 | < 100 | CCCN(CCC)Cc1c(CC)nc2n(-c3ccc(Cl)cc3Cl)c(Cl)cn12 [Example 288, 3-[(N,N-Dipropylamino)methyl]-6-chloro-2-ethyl-7-(2,4-diclorophenyl)-7H-imidazo[1,2-a]imidazole]
20 | < 100 | CCc1nc2n(-c3ccc(Cl)cc3Cl)c(Cl)cn2c1CN(CC1CC1)CC(F)(F)F [Example 289, 3-[(N-Cyclopropylmethyl-N-(2,2,2-trifluoroethyl)amino)methyl]-6-chloro-2-ethyl-7-(2,4-diclorophenyl)-7H-imidazo[1,2-a]imidazole]
21 | < 100 | CCCCN(CC)C(=O)c1c(CC)nc2n(-c3c(C)cc(C)cc3C)c(Cl)cn12 [Example 291, 6-Chloro-2-ethyl-7-(2,4,6-trimethylphenyl)-7H-imidazo[1,2-a]imidazole-3-carboxylic acid N-butyl-N-ethylamide]
22 | < 100 | CCCN(CCC)C(=O)c1c(CC)nc2n(-c3c(C)cc(C)cc3C)c(Cl)cn12 [Example 292, 6-Chloro-2-ethyl-7-(2,4,6-trimethylphenyl)-7H-imidazo[1,2-a]imidazole-3-carboxylic acid N,N-dipropylamide]
23 | < 1000 | CCc1nc2n(-c3c(C)cc(C)cc3C)c(Cl)cn2c1C(=O)N(CC)CC [Example 293, 6-Chloro-2-ethyl-7-(2,4,6-trimethylphenyl)-7H-imidazo[1,2-a]imidazole-3-carboxylic acid N,N-diethylamide]
24 | < 1000 | C=CCN(CC=C)C(=O)c1c(CC)nc2n(-c3c(C)cc(C)cc3C)c(Cl)cn12 [Example 295, 6-Chloro-2-ethyl-7-(2,4,6-trimethylphenyl)-7H-imidazo[1,2-a]imidazole-3-carboxylic acid N,N-diallylamide]
25 | < 10 | CCc1nc2n(-c3c(C)cc(C)cc3C)c(Cl)cn2c1C(=O)N(CC1CC1)CC(F)(F)F [Example 296, 6-Chloro-2-ethyl-7-(2,4,6-trimethylphenyl)-7H-imidazo[1,2-a]imidazole-3-carboxylic acid N-cyclopropylmethyl-N-(2,2,2-trifluoroethyl)amide]
26 | < 1000 | CCc1nc2n(-c3c(C)cc(C)cc3C)c(Cl)cn2c1C(=O)N(CC)Cc1ccncc1 [Example 297, 6-Chloro-2-ethyl-7-(2,4,6-trimethylphenyl)-7H-imidazo[1,2-a]imidazole-3-carboxylic acid N-ethyl-N-(pyridin-4-yl)methylamide]
27 | < 10 | CCc1nc2n(-c3c(C)cc(C)cc3C)c(Cl)cn2c1C(=O)N(CC)CC1CC1 [Example 298, 6-Chloro-2-ethyl-7-(2,4,6-trimethylphenyl)-7H-imidazo[1,2-a]imidazole-3-carboxylic acid N-cyclopropylmethyl-N-ethylamide]
28 | < 1000 | CCCN(CC1CC1)C(=O)c1c(C)nc2n1CC(=O)N2c1c(C)cc(C)cc1C [Example 301, 2-Methyl-6-oxo-7-(2,4,6-trimethyl-phenyl)-6,7-dihydro-5H-imidazo[1,2-a]imidazole-3-carboxylic acid cyclopropylmethyl-propyl-amide]
29 | < 10 | CCCN(Cc1c(C(F)(F)F)nc2n(-c3c(C)cc(C)cc3C)c(Cl)cn12)CC1CC1 [Example 303, [6-Chloro-2-trifluoromethyl-7-(2,4,6-trimethyl-phenyl)-7H-imidazo[1,2-a]imidazol-3-ylmethyl]-cyclopropylmethyl-propyl-amine]
30 | < 1000 | Cc1cc(C)c(-n2c(Cl)cn3c(CN4CC=CCC4)c(C(F)(F)F)nc23)c(C)c1 [Example 305, 2-Chloro-5-(3,6-dihydro-2H-pyridin-1-ylmethyl)-6-trifluoromethyl-1-(2,4,6-trimethyl-phenyl)-1H-imidazo[1,2-a]imidazole]
31 | < 1000 | Cc1cc(C)c(-n2c(Cl)cn3c(CN4CCSCC4)c(C(F)(F)F)nc23)c(C)c1 [Example 306, 2-Chloro-5-thiomorpholin-4-ylmethyl-6-trifluoromethyl-1-(2,4,6-trimethyl-phenyl)-1H-imidazo[1,2-a]imidazole]
